Like-named read-outs stand apart in the source and are kept apart here.
What was measured:
DGKz = DGKz (Homo sapiens (Human), UniProt Q13574); experiment: DGK ADP-Glo kinase assay (DGKz); type: biochemical; conditions: 5 nM DGKz, 15 uM ATP
Experimental: Luminescence was recorded using an Tecan SPARK microplate reader.

DGKa [1] = target: T1, DGKa (Homo sapiens (Human), UniProt P23743); experiment: biochemical;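 also: biochemical DGK kinase assay, ADP-Glo luminescence from ADP made by phosphorylating 1,2-dioleoyl-sn-glycerol, 20 min compound preincubation then 40 min reaction at 25 °C, 1% DMSO control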
T1 sequence (P23743 whole entry): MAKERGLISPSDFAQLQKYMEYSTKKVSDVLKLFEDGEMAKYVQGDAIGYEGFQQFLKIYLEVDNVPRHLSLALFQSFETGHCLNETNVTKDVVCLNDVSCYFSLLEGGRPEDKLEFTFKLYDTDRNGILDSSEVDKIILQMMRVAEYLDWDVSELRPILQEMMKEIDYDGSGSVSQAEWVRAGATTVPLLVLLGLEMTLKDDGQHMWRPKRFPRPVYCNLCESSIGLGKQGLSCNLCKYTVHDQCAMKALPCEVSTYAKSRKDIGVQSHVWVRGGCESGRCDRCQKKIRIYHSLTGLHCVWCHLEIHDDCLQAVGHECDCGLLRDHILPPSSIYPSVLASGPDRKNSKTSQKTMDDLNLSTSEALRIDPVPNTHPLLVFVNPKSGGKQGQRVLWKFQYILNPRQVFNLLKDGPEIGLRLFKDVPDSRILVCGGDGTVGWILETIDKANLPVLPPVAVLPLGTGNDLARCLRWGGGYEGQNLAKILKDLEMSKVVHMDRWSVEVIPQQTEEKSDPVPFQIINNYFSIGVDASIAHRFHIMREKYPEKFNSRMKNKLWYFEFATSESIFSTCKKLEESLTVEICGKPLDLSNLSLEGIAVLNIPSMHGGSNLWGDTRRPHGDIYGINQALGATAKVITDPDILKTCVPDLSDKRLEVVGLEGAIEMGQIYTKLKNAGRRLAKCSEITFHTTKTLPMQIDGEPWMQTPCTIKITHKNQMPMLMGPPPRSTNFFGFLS
Experimental: (§1) The DGKa and DGKz kinase assays were performed using Promega ADP-Glo kit (Promega, Cat #V9102). One microliter test compound was added to a 384-well plate. Reactions were performed in a 5 uL volume by adding 2 uL mixture of DGK enzyme and ATP in assay buffer (50 mM MOPS pH 7.5, 100 mM NaCl, 10 mM MgCl2, 1 mM CaCl2, 0.0025% BSA, and 1 mM DTT). […] The enzyme solution was incubated with test compound at 25 ? for 20 min. […] The reaction was initiated by the addition of 2 uL of substrate solution (7 uM 1.2-dioleoyl-sn-glycerol, 5 mM octyl-b-D-glucopyranoside) in the 5 uL assay volume. The resulting mixture was incubated at 25° C. for 40 minutes. Next, 5 uL of ADP-Glo-reagent was added to the plate and incubated for 40 minutes. Then 10 uL of kinase detection reagent was added and incubated for 30 minutes. Luminescence was recorded using an Tecan SPARK microplate reader. 1% DMSO vehicle was used as control and no enzyme well was used as blank well.

DGKa [2] = target: T1, DGKa
Experimental: as §1

PBMC = experiment: Human PBMC IL-2 assay; type: cell-based; conditions: anti-CD3/CD28 stimulation overnight, IL-2 level
Summary of the method: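 Healthy-donor frozen PBMC were thawed, rested 4 h at 37 °C and plated at ~200,000 cells/well. Cells were preincubated 60 min at 37 °C with compound solution (10 uM to 0.6 nM, 8 points, 4-fold, as added), then stimulated overnight with anti-CD3/CD28. Supernatant IL-2 was quantified by immunoassay kit and plotted against log compound concentration.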

Jurkat cells = experiment: Jurkat IL-2 assay; type: cell-based; conditions: Homo sapiens, anti-CD3/CD28 stimulation overnight, IL-2 level
Summary of the method: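 Cells in RPMI-1640 with 10% FBS received compound solution (5 uM to 2.3 nM, 8 points, 3-fold dilution) for 60 minutes at 37° C. They were then stimulated overnight at 37° C. with anti-CD3/CD28 antibody. IL-2 in the supernatant was quantified by immunoassay kit and plotted against log compound concentration.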

Chain of DGKz (Q13574 whole entry): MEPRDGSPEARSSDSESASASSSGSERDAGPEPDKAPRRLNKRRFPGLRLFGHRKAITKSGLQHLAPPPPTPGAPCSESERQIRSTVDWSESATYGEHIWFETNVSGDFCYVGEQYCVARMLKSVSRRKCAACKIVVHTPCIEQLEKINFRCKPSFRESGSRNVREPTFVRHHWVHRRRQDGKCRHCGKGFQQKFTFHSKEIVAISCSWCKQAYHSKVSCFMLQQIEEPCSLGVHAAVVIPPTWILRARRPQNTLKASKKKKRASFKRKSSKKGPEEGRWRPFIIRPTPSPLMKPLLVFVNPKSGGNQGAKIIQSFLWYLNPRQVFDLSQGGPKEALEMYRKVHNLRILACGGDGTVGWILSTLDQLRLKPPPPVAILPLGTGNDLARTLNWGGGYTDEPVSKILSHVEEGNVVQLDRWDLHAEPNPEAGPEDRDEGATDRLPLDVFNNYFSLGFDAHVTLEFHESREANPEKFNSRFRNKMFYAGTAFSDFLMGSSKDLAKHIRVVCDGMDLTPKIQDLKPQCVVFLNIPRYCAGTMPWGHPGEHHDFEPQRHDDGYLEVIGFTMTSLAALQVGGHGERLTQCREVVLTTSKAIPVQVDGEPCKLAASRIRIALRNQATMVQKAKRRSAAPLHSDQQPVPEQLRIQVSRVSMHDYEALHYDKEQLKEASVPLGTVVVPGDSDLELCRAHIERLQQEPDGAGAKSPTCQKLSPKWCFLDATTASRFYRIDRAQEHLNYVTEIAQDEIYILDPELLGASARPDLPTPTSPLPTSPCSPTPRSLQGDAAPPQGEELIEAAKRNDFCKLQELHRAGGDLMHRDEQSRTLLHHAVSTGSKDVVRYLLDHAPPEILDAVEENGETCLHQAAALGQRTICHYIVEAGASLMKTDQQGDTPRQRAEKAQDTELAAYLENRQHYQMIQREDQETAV

| Compound | IC50 (DGKz) | IC50 (DGKa [1]) | IC50 (DGKa [2]) | EC50 (Jurkat cells) | EC50 (PBMC) |
| --- | --- | --- | --- | --- | --- |
| CC[C@@H]1C[C@@H](c2nc3cc(C)ccc3o2)CCN1c1nc(=O)n(C)c2cc(OC3CCOC3)c(Cl)cc12 (stereo in doubt) [Compound 96] | 2.82 µM | 0.004 µM | – | – | – |
| CC[C@H]1CN([C@H](CC)c2ccc(OC(F)(F)F)cc2)[C@H](CC)CN1c1nc2nncn2c2ccc(C#N)nc12 (stereo in doubt) [Compound 101] | 0.235 µM | 0.011 µM | – | – | – |
| CC[C@H]1CN([C@H](CC)c2cccc(C(F)(F)F)c2)[C@H](CC)CN1c1nc2nncn2c2ccc(C#N)nc12 (stereo in doubt) [Compound 106] | 0.555 µM | 0.024 µM | – | – | – |
| CC[C@H]1CN([C@H](CC)c2ccc(C(F)(F)F)nc2)[C@H](CC)CN1c1nc2nncn2c2ccc(C#N)nc12 (stereo in doubt) [Compound 112] | 0.183 µM | 0.011 µM | – | – | – |
| CC[C@H]1CN([C@H](CC)c2ccc(OC)cc2F)[C@H](CC)CN1c1nc2nncn2c2ccc(C#N)nc12 (stereo in doubt) [Compound 116] | 0.347 µM | – | 0.014 µM | – | – |
| CC[C@H]1CN([C@H](c2ccc(S(F)(F)(F)(F)F)cc2)C2CC2)[C@H](CC)CN1c1nc(=O)n(C)c2ccc(C#N)nc12 (stereo in doubt) [Compound 117] | 0.2 µM | 0.018 µM | – | – | – |
| CC[C@H]1CN([C@@H](c2ccc(S(F)(F)(F)(F)F)cc2)C2CC2)[C@H](CC)CN1c1nc(=O)n(C)c2ccc(C#N)nc12 (stereo in doubt) [Compound 118] | 0.61 µM | 0.022 µM | – | – | – |
| Cn1c(=O)nc(N2CCC3(CCN(c4ccc(OC(F)(F)F)cc4)C3)CC2)c2nc(C#N)ccc21 [Compound 8] | 0.547 µM | – | 0.579 µM | – | – |
| Cc1ccccc1-n1cc(C2CCN(c3nc(=O)n(C)c4ccc(C#N)nc34)CC2)cn1 [Compound 12] | > 10 µM | – | 6.6 µM | – | – |
| Cn1c(=O)c(C(N)=O)c(N2CCC3(CN(c4ccc(OC(F)(F)F)cc4)C3)C2)c2nc(C#N)ccc21 [Compound 15] | > 10 µM | – | 0.019 µM | – | – |
| CC[C@H]1C[C@@H](Oc2ccc(OC(F)(F)F)cc2)CCN1c1nc(=O)n(C)c2ccc(C#N)nc12 [Compound 17] | 0.212 µM | 0.053 µM | – | – | 0.401 µM |
| Cc1ccc2oc(C3CCN(c4nc(=O)n(C)c5ccc(C#N)nc45)CC3)nc2c1 [Compound 20] | 1.84 µM | – | 1.16 µM | – | – |
| Cc1ccc2oc(C3CCN(c4nc(=O)n(C)c5ccc6nncn6c45)CC3)nc2c1 [Compound 22] | > 10 µM | – | 0.005 µM | – | – |
| Cc1ccc2oc(C3CCN(c4nc(=O)n(C)c5cc(O[C@@H]6CCOC6)c(Cl)cc45)CC3)nc2c1 [Compound 32] | > 10 µM | 0.009 µM | – | – | – |
| CC[C@H]1CN([C@H](CC)c2ccc(C(F)(F)F)cc2)[C@H](CC)CN1c1nc2nncn2c2ccc(C#N)nc12 [Compound 35] | 0.224 µM | – | 0.016 µM | – | – |
| Cn1c(=O)nc(N2CCC3(CC2)COC(c2ccc(OC(F)(F)F)cc2)=N3)c2nc(Cl)ccc21 [Compound 37] | 0.475 µM | – | 0.017 µM | – | – |

| Compound | IC50 (DGKz) | IC50 (DGKa [1]) | IC50 (DGKa [2]) | EC50 (Jurkat cells) | EC50 (PBMC) |
| --- | --- | --- | --- | --- | --- |
| Cn1c(=O)nc(N2CCCc3c(C#CC4CC4)cccc32)c2nc(C#N)ccc21 [Compound 39] | 2.05 µM | 0.001 µM | – | – | – |
| Cn1c(=O)nc(N2CCCc3c(C#CC4CC4)cccc32)c2nc(C#N)ccc21 [Compound 42] | 0.311 µM | – | 0.003 µM | – | – |
| CC[C@H]1CN([C@H]2CCCCc3cc(C(F)(F)F)ccc32)[C@H](CC)CN1c1nc(=O)n(C)c2ccc(C#N)nc12 [Compound 44] | 0.315 µM | 0.04 µM | – | – | – |
| CN(c1cccc(C#CC2CC2)c1)c1nc(=O)n(C)c2ccc(C#N)nc12 [Compound 46] | 0.324 µM | – | 0.005 µM | – | – |
| N#Cc1ccc2c(n1)c(N1CCC3(CC1)CC(c1ccc(C(F)(F)F)cc1)=NO3)nc1nncn12 [Compound 53] | 0.185 µM | – | 0.085 µM | – | – |
| N#Cc1ccc2c(n1)c(N1CCC3(CC1)CC(c1ccc(SC(F)(F)F)cc1)=NO3)nc1nncn12 [Compound 54] | 0.248 µM | – | 0.029 µM | – | – |
| CC[C@H]1CN([C@H](c2ccc(SC(F)(F)F)cc2)c2nc(C3CC3)cs2)[C@H](CC)CN1c1nc(=O)n(C)c2ccc(C#N)nc12 [Compound 57] | 0.607 µM | 0.024 µM | – | – | – |
| CC[C@H]1CN([C@@H](c2ccc(SC(F)(F)F)cc2)c2nc(C3CC3)cs2)[C@H](CC)CN1c1nc(=O)n(C)c2ccc(C#N)nc12 [Compound 58] | 0.367 µM | 0.009 µM | – | – | – |
| N#Cc1cc2c3c(n1)c(N1CCC4(CC1)CC(c1ccc(OC(F)(F)F)cc1)=NO4)nc(=O)n3CCO2 [Compound 59] | 0.162 µM | 0.028 µM | – | – | – |
| CC[C@@H]1CN(c2nc3nncn3c3ccc(C#N)nc23)[C@@H](CC)CN1C(=O)c1ccc(C(F)(F)F)cc1 [Compound 84] | 1.16 µM | 0.009 µM | – | – | – |
| CC[C@@H]1CN(c2nc3nncn3c3ccc(C#N)nc23)[C@@H](CC)CN1C(=O)Cc1ccc(C(F)(F)F)cc1 [Compound 85] | 0.77 µM | 0.018 µM | – | – | – |
| CC[C@@H]1C[C@H](c2nc3cc(C)ccc3o2)CCN1c1nc(=O)n(C)c2cc(O[C@H]3CCOC3)c(Cl)cc12 [Compound 91] | 6.06 µM | 0.029 µM | – | – | – |
| CC[C@@H]1CN(c2nc3nncn3c3ccc(C#N)nc23)[C@@H](CC)CN1C(=O)Nc1ccc(C(F)(F)F)cc1 [Compound 95] | 0.303 µM | – | 0.058 µM | – | – |
| CC[C@@H]1CN2c3c(c(=O)n(C)c4ccc(C#N)nc34)OC[C@@H]2CN1[C@@H](CC)c1ccc(SC(F)(F)F)cc1 [Compound 123] | 0.798 µM | 0.078 µM | – | – | – |
| CC[C@@H]1CN2c3c(c(=O)n(C)c4ccc(C#N)nc34)OC[C@@H]2CN1[C@H](CC)c1ccc(SC(F)(F)F)cc1 [Compound 124] | 0.114 µM | 0.006 µM | – | – | – |

The next molecules have a lower IC50 (DGKz) than those just listed; values first:

| IC50 (DGKz) | IC50 (DGKa [1]) | IC50 (DGKa [2]) | EC50 (Jurkat cells) | Compound | EC50 (PBMC) |
| --- | --- | --- | --- | --- | --- |
| 0.029 µM | 0.004 µM | – | – | CC[C@H]1CN([C@@H](CC)c2cccc(C(F)(F)F)c2)[C@H](CC)CN1c1nc2nncn2c2ccc(C#N)nc12 (stereo in doubt) [Compound 105] | – |
| 0.018 µM | 0.007 µM | – | – | CC[C@H]1CN([C@@H](CC)c2ccc(C(F)(F)F)nc2)[C@H](CC)CN1c1nc2nncn2c2ccc(C#N)nc12 (stereo in doubt) [Compound 111] | – |
| 0.008 µM | – | 0.003 µM | – | CC[C@H]1CN([C@@H](CC)c2ccc(OC)cc2F)[C@H](CC)CN1c1nc2nncn2c2ccc(C#N)nc12 (stereo in doubt) [Compound 115] | – |
| 0.058 µM | 0.926 µM | – | – | CC[C@@H]1C[C@H](Oc2ccc(OC(F)(F)F)cc2)CCN1c1nc(=O)n(C)c2ccc(C#N)nc12 [Compound 16] | – |
| 0.055 µM | 0.014 µM | – | – | CC[C@H]1CN([C@H](CC)c2ccc(S(F)(F)(F)(F)F)cc2)[C@H](CC)CN1c1nc(=O)n(C)c2ccc(C#N)nc12 [Compound 29] | – |
| 0.06 µM | 0.002 µM | – | – | Cc1ccc2oc(C3CCN(c4nc(=O)n(C)c5cc(O[C@H]6CCOC6)c(Cl)cc45)CC3)nc2c1 [Compound 33] | – |
| 0.045 µM | 0.245 µM | – | 0.858 µM | CC[C@H]1CN([C@@H]2CCCCc3cc(C(F)(F)F)ccc32)[C@H](CC)CN1c1nc(=O)n(C)c2ccc(C#N)nc12 [Compound 45] | – |
| 0.036 µM | – | 0.012 µM | – | Cn1c(=O)nc(N2CCC3(CC2)CC(c2cccc(C(F)(F)F)c2)=NO3)c2nc(C#N)ccc21 [Compound 47] | – |
| 0.055 µM | – | 0.01 µM | – | CC[C@H]1CN(C(c2ccc(S(F)(F)(F)(F)F)cc2)c2nc(C3CC3)no2)[C@H](CC)CN1c1nc(=O)n(C)c2ccc(C#N)nc12 (stereo partly shown) [Compound 64] | – |
| 0.059 µM | 0.014 µM | – | – | CC[C@@H]1CN(c2nc(=O)n(C)c3ccc(C#N)nc23)[C@@H](C)CN1C(c1ccc(S(F)(F)(F)(F)F)cc1)c1nc(C2CC2)no1 (stereo partly shown) [Compound 65] | – |
| 0.033 µM | – | 0.013 µM | – | CC[C@@H]1CN(c2nc(=O)n(C)c3ccc(C#N)nc23)[C@@H](C)CN1[C@@H](c1ccc(F)cc1)c1ccc(SC(F)(F)F)cn1 [Compound 72] | – |
| 0.058 µM | 0.015 µM | – | – | CC[C@@H]1CN(c2nc(=O)n(C)c3ccc(C#N)nc23)[C@@H](C)CN1[C@H](c1ccc(F)cc1)c1ccc(SC(F)(F)F)cn1 [Compound 73] | – |
| 0.081 µM | – | 0.032 µM | – | CC[C@H]1CN(C(CO)c2ccc(S(F)(F)(F)(F)F)cc2)[C@H](CC)CN1c1nc(=O)n(C)c2ccc(C#N)nc12 (stereo partly shown) [Compound 77] | – |
| 0.041 µM | – | 0.019 µM | – | CC[C@H]1CN(C(COC)c2ccc(S(F)(F)(F)(F)F)cc2)[C@H](CC)CN1c1nc(=O)n(C)c2ccc(C#N)nc12 (stereo partly shown) [Compound 78] | – |
| 0.093 µM | 0.002 µM | – | – | CC[C@H]1CN([C@H](CC)c2ccc(S(F)(F)(F)(F)F)cc2)[C@H](CC)CN1c1nc2nncn2c2ccc(C#N)nc12 [Compound 87] | – |
| 0.006 µM | 0.227 µM | – | – | CC[C@@H]1C[C@H](c2nc3cc(C)ccc3o2)CCN1c1nc(=O)n(C)c2cc(O[C@@H]3CCOC3)c(Cl)cc12 [Compound 92] | – |
| 0.04 µM | – | 0.01 µM | – | CC[C@H]1CN([C@H](c2ccc(S(F)(F)(F)(F)F)cc2)c2nc(C3CC3)cs2)[C@H](CC)CN1c1nc(=O)n(C)c2ccc(C#N)nc12 [Compound 98] | – |
| 0.022 µM | – | 0.004 µM | – | CC[C@H]1CN([C@@H](c2ccc(S(F)(F)(F)(F)F)cc2)c2nc(C3CC3)cs2)[C@H](CC)CN1c1nc(=O)n(C)c2ccc(C#N)nc12 [Compound 99] | – |
